US6525089B1, “Pharmaceutical composition containing decursin” (Binex Co., Ltd., priority 1998, dated 2003)

Legend:
[1] = system: ICR mice; assay: Urinary test, alloxan-treated mice; format: in vivo; settings: Alloxan group
Protocol: (§1) 2 days after ICR mice were given alloxan (75 mg/kg, i.v.), their glucose levels at fasting were measured to select high-glucose mice. The high-glucose mice were divided into two groups; physiological saline solution was given to one group, while decursin was orally administered to the other group at a dose of 50 mg/kg for 10 days. The alloxan-free group was also orally given physiological saline solution for 10 days. The body weighs were checked periodically, together with urinary tests. To isolate their sera and kidney, mice were slightly anesthetized with ether and their abdomens were dissected. The blood samples were collected from heart to isolate the sera. The kidney was perfused with 0.9% NaCl and isolated after removal of the blood. Then the weight of right kidney was measured. Further, to measure the protein amount from the kidney tissues, these tissues were assayed according to the Bradford method using Bio-Rad protein assay kit in the presence of bovine serum albumin as a reference standard. To measure the MDA in the kidney tissues, 0.4 ml of 10% sodium dodecylsulfate was added to 0.5 ml of 10% kidney-tissue homogenization solution and left in water bath at 37° C. for 30 minutes; With the subsequent addition of 0.1N-HCl (2 ml) and 0.67% TBA (1 ml), the mixture was voltexed and left in boiling water bath for 30 minutes. The mixture was further cooled in ice bath for 2˜3 minutes to stop the reaction. Then 2 ml of n-butanol was added to the mixture, stirred well and centrifuged at 3000 rpm for 10 minutes. The supernatant was collected to measure the absorbance at 532 nm. 10 μg/ml tetraethoxypropane (TEP) was employed as a reference standard. To measure the MDA in sera, 0.8% thiobarbituric acid (TBA) was added to 0.5 ml of sera and left in boiling water bath for 30 minutes. The mixture was further cooled in ice bath for 2˜3 minutes to stop the reaction. The supernatant was collected to measure the absorbance at 532 nm. 10 μg/ml TEP was employed as a reference standard.

[2] = system: ICR mice; assay: BUN and MDA in blood and MDA in renal tissue, alloxan-treated mice; format: in vivo; settings: alloxan 75 mg/kg i.v., saline for 10 days
Protocol: as §1
Mice were orally given decursin at a dose of 50 mg/kg for 10 days continuously. Then various parameters such as BUN and MDA in the blood as a marker of renal failure were measured, together with urinary test. When […] (table 4), the BUN value of single alloxan-treated group, 17.4±3.7 mg/dl was recovered to the normal level (4.8±0.6 mg/dl) by the treatment of decursin. The MDA value of single alloxan-treated group, 0.51±0.07, was reduced to 0.36±0.03 by the treatment of decursin, which was similar to a normal control group. Thus it was noted that the damage in the kidney was completely recovered. Since the reduction of both MDA values in the blood and kidney tissues may be clinically reasonable and desirable, the MDA value in the kidney tissues was measured. As a result, the MDA value in the kidney tissues of a single alloxan-treated group, 13.24±5.93, was reduced to 5.63±0.99 by the treatment of decursin, which was lower than that of normal control group (8.44±1.01).

[3] = system: U-937 cells; assay: Esterase activity test: naphthol AS-D chloroacetate esterase; format: cell-based, human; settings: percentage of cells showing activity
Protocol: To determine naphthol AS-D chloroacetate esterase activity, the cultured solution of U-937 cells was pelleted by centrifugation at 2000 rpm for 5 minutes, followed by the addition of 100 μl PBS to prepare a cell-concentrated solution. A drop of the cell solution was put on a slide glass and dried for more than 1 hour. Then 40 ml of deionized water was preheated at 37° C. 1 ml of […] solution was mixed with 1 ml of Fast Red Violet LB base solution and left for 2 minutes. The mixture was added to 40 ml of preheated deionized water. After the addition of 5 ml of TRIZMAL TM 6.3) buffer solution (Sigma Co. T-3128) and 1 ml of naphthol AS-D chloroacetate solution, the resulting solution, which was turned to red color was poured on a petri dish. The cells on a slide glass were fixed with citrate-acetone-formaldehyde solution, (CAF solution) at room temperature. The cells were soaked in the previously prepared solution and incubated at 37° C. for 30 minutes at a dark place. The cells were completely washed with deionized water for more than 2 minutes and counterstained with hematoxylin solution for 2 minutes, washed with tap water and dried in the air. After completely dried, the cells were observed under a microscope to calculate the reddish cell numbers by percentage.
(§2) Thus it was considered that the cells were differentiated into macrophage.like cells by the action of decursin.

[4] = system: U-937 cells; assay: Phagocytosis test; format: cell-based, human; settings: 1 × 10^−7M, incubated 4 days
Protocol: (§3) U-937 cells were plated on a cell culture dish at a concentration of 2×10^5 cells/ml in a medium containing 10^−7M decursin and incubated in a 5% CO2 incubator at 37° C.
In the phagocytosis test, 10^6 cells were well stirred and pelleted by centrifugation at 2000 rpm for 5 minutes. 1 ml of 0.2% serum free medium solution in polystyrene particle were added to the pellets, swayed and incubated at 37° C. for 4 hours. After being washed with phosphate buffered saline (PBS) three times, cell pellets were harvested and then about 200 μl of DPBS was added. The solution was lightly swayed and checked under a microscope to observe a minimum number of 200 cells. The number of cells containing the particles was calculated by percentage.
The results of phagocytosis test designed to assess the functional change according to differentiation of U-937 cells was shown in the following Table 8.

[5] = system: U-937 cells; assay: Growth inhibition test (trypan blue exclusion); format: cell-based, human; settings: 4 days (96 hours)
Protocol: U-937 cells, optioned from Korea Cell Line Bank, was cultured in RPMI 1640 medium (Sigma Co., R-6504) supplemented with 10% fetal bovine serum (FBS). The medium was exchanged every 5 day by 70%. U-937 cells were inoculated into a cell culture dish at concentration of 2×10^5 cells/ml. Then decursin added into the dish at concentration of 10^−8˜10^−6M, then the cells were cultured for 4 days. Trypan blue exclusion test was performed to determine the number of live cells using a hemacytometer, and the percentage of cancer-cell growth inhibition was calculated. Then, the differentiation was induced by treating with 10^−2M diluted ethanol solution containing various amount of decursin in the medium.

[6] = system: U-937 cells; assay: Esterase activity test: α-naphthyl acetate esterase; format: cell-based, human; settings: percentage of cells showing activity
Protocol: To determine α-naphthyl acetate esterase activity in the esterase activity test, the cultured solution of U-937 cells was pelleted by centrifugation at 2000 rpm for 5 minutes, followed by the addition of 100 μl PBS to prepare a cell-concentrated solution. A drop of the cell solution was put on a slide glass and dried for more than 1 hour. Then 40 ml of deionized water was preheated at 37° C. 1 ml of […] solution was mixed with 1 ml of Fast Blue BB base solution and left for 2 minutes. The mixture, being turned to yellow color with thick brown, was added to 40 ml of the preheated deionized water. After the addition of 5 ml of TRIZMAL TM 7.6 buffer solution (Sigma Co. 870-2) and 1 ml of α-naphthyl acetate solution, the resulting solution, which was turned to green color, was poured into a petri dish. The cells on a slide glass were fixed with citrate-acetone-formaldehyde solution (CAF solution) at room temperature. The cells were soaked in the previously prepared solution and incubated at 37° C. for 30 minutes at a dark place. The cells were completely washed with deionized water for more than 2 minutes and counterstained with hematoxylin solution for 2 minutes, washed with tap water and dried in the air. After completely dried, the cells were observed under a microscope to determine the blackish cell numbers.
as §2

[7] = system: U-937 cells; assay: NBT reduction test; format: cell-based, human; settings: 1 × 10^−7M, incubated 4 days
Protocol: as §3
In the nitrobluetetrazolium (NBT) reduction test, cell solution (about 1×10^6 cells/ml) was well stirred and pelleted by centrifugation at 2000 rpm for 5 minutes. The pellets were suspended in 0.5 ml of medium, followed by the addition of a mixing solution (0.5 ml) containing 10^−6M formyl-methionine leucine phenylalanine (fMLP) and NBT 1.0 mg/DPBSml (1:9). The mixture was incubated at 37° C. for 30 minutes. The reaction was stopped in ice bath and centrifuged at 2000 rpm for 5 minutes. The supernatant was removed and then 200 μl of DPBS was added. The solution was lightly swayed and checked under a microscope to observe a minimum number of 200 cells. The number of NBT (+) cells was calculated by percentage.
The differentiation was investigated by using the fact that the differentiated leukocyte cells may generate superoxide anion by stimulation. […] The cultured mixture, which was reacted with superoxide, was reduced to form a precipitate. Then NBT was added to the precipitate (Table 7).

## O=C1NC(=O)C(=O)C(=O)N1 [alloxan]
[1]
  Urinary test Bilirubin: count in category +: 2
  Urinary test Bilirubin: count in category ++: 6
  Urinary test Bilirubin: count in category +++: 2
  Urinary test Glucose: count in category ++: 10
  Urinary test Ketone: count in category ±: 3
  Urinary test Ketone: count in category −: 7
  Urinary test Nitrite: count in category +: 4
  Urinary test Nitrite: count in category −: 6
  Urinary test Occult blood: count in category ++: 2
  Urinary test Occult blood: count in category +++: 8
  Urinary test Protein: count in category −: 10
  Urinary test Specific gravity: count in category ++: 1
  Urinary test Specific gravity: count in category +++: 9
  Urinary test Urobilinogen: count in category +: 10
  Urinary test pH: count in category ±: 10
[2]
  BUN: 17.4 ± 3.7 mg/dL
  MDA in blood: 0.51 ± 0.07 µg/mL
  MDA in renal tissue: 13.24 ± 5.93 µg/g

## C=C1CC[C@H](O)C/C1=C/C=C1\CCC[C@]2(C)[C@@H]([C@H](C)CCCC(C)C)CC[C@@H]12 [Vitamin D3, reference compound]
[3]
  Naphtol AS-D chloroacetate esterase Activity (%): 0.0%
[4]
  Phagocytosis test: cells showing phagocytosis activity: 25.8 ± 1.3%
[4]; listed as vitamin D3
  Phagocytosis test: cells showing phagocytosis activity: 25.8%
[5]; 1 × 10^−6M
  Growth inhibition rate (%): 54.0 ± 6.7%
[5]; 1 × 10^−7M
  Growth inhibition rate (%): 42.5 ± 6.4%
[5]; 1 × 10^−8M
  Growth inhibition rate (%): 26.0 ± 5.7%
[5]; 5 × 10^−7M
  Growth inhibition rate (%): 48.0 ± 6.0%
[5]; 5 × 10^−8M
  Growth inhibition rate (%): 33.5 ± 0.7%
[6]
  α-Naphtylacetate esterase Activity (%): 79.3 ± 4.5%
[6]; listed as vitamin D3
  α-Naphtylacetate esterase Activity (%): 80%
[7]
  NBT reduction test: positive cells: 39.0 ± 2.1%
[7]; listed as vitamin D3
  NBT reduction test: positive cells: 39%
